Measured values: patent US20060083830A1, “Polylysine-containing food additive and acidic adjuvant” (priority 2004, published 2006)
“And” between values parts separate entries of the source, which are not always exact repeats. Equal entries are not always repeated.

Tested on: Listeria monocytogenes
Experiment: Listeria monocytogenes on boiled dumpling sheets with ε-polylysine in the dough, vacuum sealed, 10° C., CFU determination
Details: for Log Reduction: vs control Group A

## poly(imino(2-amino-1-oxo-1,6-hexanediyl)) [ε-PL]
1000 ppm ε-PL, after 1 hour
  CFU/dumpling: 3.80E+02 CFU/dumpling and 4.00E+02 CFU/dumpling and 2.00E+02 CFU/dumpling
  average Log Value: 2.15
  average of CFU/dumpling: 3.27E+02 CFU/dumpling
  Log Reduction: 0.89
1000 ppm ε-PL, after 24 hours
  average Log Value: 2.32
  average of CFU/dumpling: 2.10E+02 CFU/dumpling
  Log Reduction: 2.42
2000 ppm and above, limits of detection 10 CFU/piece
  post-lethality effect: killed the Listeria down to the limits of detection
2000 ppm ε-PL, after 1 hour
  CFU/dumpling: <1.00E+01 CFU/dumpling
  average Log Value: <1.00
  average of CFU/dumpling: <1.00E+01 CFU/dumpling
  Log Reduction: >2.41
2000 ppm ε-PL, after 24 hours
  CFU/dumpling: <1.00E+01 CFU/dumpling
  average Log Value: <1.00
  average of CFU/dumpling: <1.00E+01 CFU/dumpling
  Log Reduction: >3.74
3000 ppm ε-PL, after 1 hour
  CFU/dumpling: <1.00E+01 CFU/dumpling
  average Log Value: <1.00
  average of CFU/dumpling: <1.00E+01 CFU/dumpling
  Log Reduction: >2.41
3000 ppm ε-PL, after 24 hours
  CFU/dumpling: <1.00E+01 CFU/dumpling
  average Log Value: <1.00
  average of CFU/dumpling: <1.00E+01 CFU/dumpling
  Log Reduction: >3.74
Final concentration of 1000-3000 ppm in flour portion of dumpling
  replication of Listeria monocytogenes: completely suppressed replication of Listeria monocytogenes
